Assay results taken from ChEMBL document CHEMBL1201862, “PubChem BioAssay data set” (2004).
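Interpolation was linear, between the two tested concentrations surrounding the appropriate level; five concentrations were tested over 48 hours in 96-well plates. GI50 marks 50% less growth.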 The source made the active and inactive calls. Rule as the data show it: active = GI50 up to about 1.1 µM and inactive = higher.

Key:
Assay in all cases: NCI tumour cell line growth inhibition, 48 h
[1] = system: HOP-18
[2] = system: DMS-273
[3] = system: KM-20L2
[4] = system: DMS-114
[5] = system: RXF 631
[6] = system: LXFL 529
[7] = system: M19-MEL
[8] = system: SNB-78
[9] = system: XF498

Measured: GI50

CC(C)NC(=O)CCN(C(=O)O)S(=O)(=O)c1ccc(NC(=O)c2ccccc2)cc1
inactive: [1] > 100 µM | [2] > 42.7 µM | [3] > 100 µM | [4] > 39.4 µM | [5] > 100 µM | [6] > 93.8 µM | [7] > 53.3 µM | [8] > 100 µM | [9] > 100 µM

COC(=N)c1csc(C2OC(CO)C(O)C2O)n1 (stereo unspecified)
inactive: [1] > 100 µM | [2] > 100 µM | [3] > 100 µM | [4] > 100 µM | [5] > 100 µM | [6] > 100 µM | [7] > 100 µM | [8] > 100 µM | [9] > 100 µM

COC(=O)CCC(NC(=S)N/N=C/c1ccco1)C(=O)OC (stereo unspecified)
inactive: [1] > 100 µM | [2] > 100 µM | [3] > 100 µM | [4] > 100 µM | [5] > 100 µM | [6] > 100 µM | [7] > 100 µM | [8] > 100 µM | [9] > 100 µM

CCc1cccc(CC)c1NC(=O)C(C#N)C1=C(Cl)C(=O)c2ccccc2C1=O (stereo unspecified)
inactive: [1] 15.5 µM | [2] 17.9 µM | [3] 21.4 µM | [4] 22 µM | [5] 16.1 µM | [6] 16.1 µM | [7] 19.1 µM | [8] 8.15 µM | [9] 15.9 µM

Cc1cc(C)nc(NS(=O)(=O)c2ccc(NC(=O)c3cccc4c(Nc5ccc(S(N)(=O)=O)cc5)c5ccccc5nc34)cc2)n1
inactive: [1] > 56 µM | [2] 34.8 µM | [3] > 75.5 µM | [4] 17.5 µM | [5] > 100 µM | [6] 3.92 µM | [7] 13.5 µM | [8] 9.79 µM | [9] 39.2 µM

COc1ccc2c(c1)NC1(O)c3ccccc3C(=O)C21O (stereo unspecified)
inactive: [1] > 100 µM | [2] > 100 µM | [3] > 100 µM | [4] > 100 µM | [5] > 100 µM | [6] > 100 µM | [7] > 100 µM | [8] > 100 µM | [9] 25 µM

COC(=O)C1=C(c2ccc(Cl)cc2)C(O)NC(NN)=N1 (stereo unspecified)
inactive: [1] > 100 µM | [4] > 100 µM | [5] > 100 µM | [6] > 100 µM | [7] > 100 µM | [8] > 100 µM | [9] > 100 µM
